Source: patent US20020052331A1, “Compositions and methods for antisense inhibition of protein translation” (priority 1990, published 2002)
Like-named read-outs stand apart in the source and are kept apart here. Strand notation (5' to 3'): a small letter for the sugar, then the base; units joined by * are phosphorothioate-linked, units joined directly phosphodiester-linked; [ ] holds rarer units or linkages, { } end groups; capitals alone tell only the bases. [PRP-N] = 2'-O-propyl ribonucleoside (N: the base); [PRP] = 2'-O-propyl ribonucleoside; e = 2'-O-(2-methoxyethyl) (MOE); [5mC] = 5-methylcytosine; d = 2'-deoxy (DNA); m = 2'-O-methyl; f = 2'-fluoro

How the values were obtained:
[1] = test system: VCAM-1 mRNA; assay: ELISA of VCAM-1 expression in HUVECs; assay type: cell-based, human; conditions: for IC50: read-out: IC50 for inhibition of VCAM-1 expression
[2] = test system: E-selectin mRNA; assay: ELISA of E-selectin expression in HUVECs; assay type: cell-based, human; conditions: for inhibition of E-selectin expression: oligomer concentration of 50 nM
[3] = HUVECs, ELISA, equivalent (second) experiment, read-out: IC50 for reduction of E-selectin expression
[4] = HUVECs, ELISA, FIG. 5 experiment, read-out: IC50 for reduction of E-selectin expression

ISIS 14040: SEQ ID NO: 15, P═S all 2′-O-propyl, all C's are 5meC; VCAM-1 n.t. 1-20 (antisense [PRP-5mC]*[PRP-G]*[PRP-A]*[PRP-T]*[PRP-G]*[PRP-5mC]*[PRP-A]*[PRP-G]*[PRP-A]*[PRP-T]*[PRP-A]*[PRP-5mC]*[PRP-5mC]*[PRP-G]*[PRP-5mC]*[PRP-G]*[PRP-G]*[PRP-A]*[PRP-G]*dT)
IC50 ([1]; subsequent experiment): < 10 nM

ISIS 9218: SEQ ID NO: 3, P═S all 2′-O-propyl except 3′ nt is deoxy; E-selectin 5′ cap (GAAGTCAGCCAAGAACAGCT; sugars from the 5' end [PRP]19 d1, all phosphorothioate, methylation of C not given here)
IC50 [2, 3]: 25 nM

ISIS 13181: SEQ ID NO: 15 sequence, P═S all 2′ F; VCAM-1 n.t. 1-20 (antisense CGATGCAGATACCGCGGAGT; sugars from the 5' end f19 d1, all phosphorothioate, T or U not given here)
IC50 ([1]; FIG. 6 experiment): < 10 nM
inhibition of VCAM-1 expression ([1]; highest dose tested, 100 nM): 100%

ISIS 13182: SEQ ID NO: 15, P═S all 2′-MOE, all C's are 5meC; VCAM-1 n.t. 1-20 (antisense e[5mC]*eG*eA*eT*eG*e[5mC]*eA*eG*eA*eT*eA*e[5mC]*e[5mC]*eG*e[5mC]*eG*eG*eA*eG*dT)
IC50 ([1]; FIG. 6 experiment): < 10 nM

ISIS 9984: SEQ ID NO: 3 GAAGTCAGCCAAGAACAGCT, P═S all 2′ F except 3′ nt is deoxy; E-selectin 5′ cap (sugars from the 5' end f19 d1, all phosphorothioate, T or U not given here)
IC50 for inhibition of E-selectin expression ([2]; HUVECs, FIG. 3 experiment): well below this
relative activity in inhibiting E-selectin protein expression ([2]; among over 30 2′-fluoro phosphorothioate sequences complementary to various regions of the E-selectin message): by far the most active

ISIS 14041: SEQ ID NO: 15, P═S all 2′-O-methyl, all C's are 5meC; VCAM-1 n.t. 1-20 (CGATGCAGATACCGCGGAGT; sugars from the 5' end m19 d1, all C 5-methyl, all phosphorothioate, T or U not given here)
IC50 ([1]; subsequent experiment): < 10 nM

ISIS 11205: SEQ ID NO: 3, P═S all 2′ F except 3′ nt is deoxy, all C's 5meC; E-selectin 5′ cap (antisense GAAGTCAGCCAAGAACAGCT; sugars from the 5' end f19 d1, all C 5-methyl, all phosphorothioate, T or U not given here)
IC50 [2, 4]: < 3 nM
IC50 [2, 3]: < 3 nM
inhibition of E-selectin expression ([2]; HUVECs): ~100%

ISIS 14043: SEQ ID NO: 3, P═S all 2′-O-methyl except 3′ nt is deoxy, all C's 5meC; E-selectin 5′ cap (GAAGTCAGCCAAGAACAGCT; sugars from the 5' end m19 d1, all C 5-methyl, all phosphorothioate, T or U not given here)
IC50 [2, 3]: 10 nM

ISIS 11928: SEQ ID NO: 3, P═S all 2′-MOE except 3′ nt is deoxy, all C's 5meC; E-selectin 5′ cap (antisense eG*eA*eA*eG*eT*e[5mC]*eA*eG*e[5mC]*e[5mC]*eA*eA*eG*eA*eA*e[5mC]*eA*eG*e[5mC]*dT)
IC50 [2, 4]: < 3 nM
IC50 [2, 3]: < 3 nM
inhibition of E-selectin expression ([2]; HUVECs): ~100%

ISIS 13183: SEQ ID NO: 15, P═O all 2′-MOE, all C's are 5meC; VCAM-1 n.t. 1-20 (antisense e[5mC]eGeAeTeGe[5mC]eAeGeAeTeAe[5mC]e[5mC]eGe[5mC]eGeGeAeGdT)
IC50 ([1]; FIG. 6 experiment): < 10 nM

ISIS 4764: SEQ ID NO: 3, P═S deoxy; E-selectin 5′ cap (dG*dA*dA*dG*dT*dC*dA*dG*dC*dC*dA*dA*dG*dA*dA*dC*dA*dG*dC*dT)
IC50 [2, 4]: ~10 nM
IC50 [2, 3]: 10 nM
IC50 ([2]; HUVECs, FIG. 3 experiment, read-out: IC50 for inhibition of E-selectin expression): < 10 nM

ISIS 5884: CGATGCAGATACCGCGGAGT (SEQ ID NO: 15), P═S deoxy; VCAM-1 n.t. 1-20 (dC*dG*dA*dT*dG*dC*dA*dG*dA*dT*dA*dC*dC*dG*dC*dG*dG*dA*dG*dT)
IC50 ([1]; FIG. 6 experiment): 10 to 12 nM
